Assay results published in patent US10501452B2, “Lactam compound derivative and application thereof” (NHWA PHARMA. CORPORATION, priority 2015, dated 2019).
Like-named read-outs stand apart in the source and are kept apart here.

How the values were obtained:
5-HT1A = 5-HT1A (Rattus norvegicus (Rat), UniProt P19327); test: 5-HT1A receptor binding assay (3H-8-OH-DPAT); conditions: rat cortex membrane, 3H-8-OH-DPAT
Procedure: Rats were decapitated. […] Incubation at 37° C. was conducted for 10 min. […] Centrifugation was conducted and repeated 3 times.
(§1) Materials for the Receptor Binding Assay

D2 = D2 (Rattus norvegicus (Rat), UniProt P61169); test: D2 receptor binding assay (3H-Spiperone)
Procedure: Rats were decapitated. Striatum of brain was rapidly taken on ice, 3 ml of buffer (0.05 M Tris-HCl buffer, containing NaCl 120 mM, KCl 5 mM, MgCl2 1 mM, CaCl2 1 mM) was added, homogenization was conducted, and then 5 ml of buffer was then added. The weight of the homogenized tubes were adjusted using a balance, and centrifugation was conducted. The supernatant was discarded, and 3 ml of buffer was added. Vortex mixer was used for blending, and then 5 ml of buffer was added. Centrifugation was conducted and repeated 3 times. The supernatant was discarded after centrifugation was completed, and the pellets were stored at −80° C. for future use.
Beckman LS-6500 Multi-function Liquid Scintillation Counter was used.
(1) The prepared membrane was applied with appropriate amount of buffer, and homogenizer was used for evenly dispersing. 15 tubes were mixed into a 100 ml container, and appropriate amount of buffer was added to give 50 ml of membrane suspension, which was reserved for future use.
(§2) (2) 100 μL of membrane preparation and 100 μL of buffer were added into each reaction tube.
(3) 100 μL of buffer was added into the total binding tube (TB), 100 μL of Butaclamol (final concentration 10^−5M) was added into the nonspecific binding tube (NB), 100 μL of the test compound (final concentration 10^−5M) was added into the specific binding tube (SB) of each test compound.
(5) Each of the reaction tubes was incubated at 37° C. for 20 min. After the reaction was completed, the bound ligands were rapidly filtered under reduced pressure, and sufficiently washed with ice-chilled assay buffer. The filter was taken out and put into a 3 ml scintillation vial, and 2 ml of toluene scintillation cocktail was added and blended.
(6) The scintillation vials were put into Liquid Scintillation Counter for counting. Inhibition rate(I%)=(Total binding tube cpm−compound cpm)/(Total binding tube cpm−nonspecific binding tube cpm)×100%
Each assay for the compounds was conducted in duplicate for two individual tests.

5-HT2A = 5-HT2A (Rattus norvegicus (Rat), UniProt P14842); test: 5-HT2A receptor binding assay ([3H]-Ketanserin)
Procedure: Rats were decapitated. Cortex of brain was rapidly taken on ice, and 3 ml of buffer (0.05 M Tris-HCl buffer: 6.05 g of Tris was dissolved in 1000 ml of double-distilled water, and concentrated HCl was used to adjust to pH 7.5) was added, homogenization was conducted, and then 5 ml of buffer was added. Incubation was conducted at 37° C. for 10 min, the weight of the tubes were adjusted using a balance after incubation. Centrifugation was conducted at 12000 rpm, 4° C. for 20 min, the supernatant was discarded, and 3 ml of buffer was added. Vortex mixer was used for blending, and then 5 ml of buffer was added. Centrifugation was conducted (repeated 3 times). After the centrifugation, the supernatant was discarded, and the pellets were stored at −80° C. for future use.
(1) The prepared membrane was applied with buffer, and homogenizer was used for evenly dispersing. 15 tubes were mixed into a 100 ml container, and appropriate amount of buffer was added to give 50 ml of membrane suspension, which was reserved for future use.
as §2
(3) 100 μL of buffer was added into the total binding tube (TB), 100 μL of Methysergide (final concentration 10^−5M) was added into the nonspecific binding tube (NB), 100 μL of the test compound (final concentration 10^−5M) was added into the specific binding tube (SB) of each test compound.
(5) Each of the reaction tubes was incubated at 37° C. for 15 min. After the reaction was completed, the bound ligands were rapidly filtered under reduced pressure, and sufficiently washed with ice-chilled assay buffer. The filter was taken out and put into a 3 ml scintillation vial, and 2 ml of toluene scintillation cocktail was added and blended.
(6) The scintillation vial were put into Liquid Scintillation Counter for counting. Inhibition rate(I%)=(Total binding tube cpm−compound cpm)/(Total binding tube cpm−nonspecific binding tube cpm)×100%

5-HT7 receptor = 5-HT7 receptor (Rattus norvegicus (Rat), UniProt P32305); test: 5-HT7 receptor binding assay ([3H]-5-CT); conditions: rat hypothalamus membrane, [3H]-5-CT
Procedure: Adult SD rats were decapitated. […] Centrifugation was conducted (repeated 3 times).
as §1

Histamine H1 receptor = Histamine H1 receptor (Cavia porcellus (Guinea pig), UniProt P31389); test: Histamine H1 receptor binding assay (3H-pyrilamine); conditions: guinea pig cerebellum membrane, 3H-pyrilamine
Procedure: Preparation of Histamine H1 Receptor Membrane
Guinea pigs were decapitated. […] Vortex mixer was used for blending. Centrifugation was conducted at 48000 g, 4° C. for 10 min. The supernatant was discarded to give pellets, and buffer was added again for washing. Centrifugation was conducted and repeated 3 times.
as §1
(2) 100 μL of membrane preparation was added into each reaction tube.

[1] = read-out: Ki (nM) D2, rat striatum membrane, 3H-Spiperone
[2] = read-out: Ki (nM) 5-HT2A, rat cortex membrane, [3H]-Ketanserin

Chain of 5-HT1A (P19327 whole entry): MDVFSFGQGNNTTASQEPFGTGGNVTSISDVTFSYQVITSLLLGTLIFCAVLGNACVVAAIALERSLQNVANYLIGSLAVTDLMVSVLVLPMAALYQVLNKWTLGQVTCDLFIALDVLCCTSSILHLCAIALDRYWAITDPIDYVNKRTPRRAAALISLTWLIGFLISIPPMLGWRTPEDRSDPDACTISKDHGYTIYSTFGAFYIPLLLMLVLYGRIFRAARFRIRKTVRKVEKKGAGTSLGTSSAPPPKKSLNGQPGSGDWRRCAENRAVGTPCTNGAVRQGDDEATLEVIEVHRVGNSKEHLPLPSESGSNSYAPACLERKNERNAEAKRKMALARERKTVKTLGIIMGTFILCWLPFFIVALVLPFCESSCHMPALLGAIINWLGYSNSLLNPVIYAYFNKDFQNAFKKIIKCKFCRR
Chain of D2 (P61169 whole entry): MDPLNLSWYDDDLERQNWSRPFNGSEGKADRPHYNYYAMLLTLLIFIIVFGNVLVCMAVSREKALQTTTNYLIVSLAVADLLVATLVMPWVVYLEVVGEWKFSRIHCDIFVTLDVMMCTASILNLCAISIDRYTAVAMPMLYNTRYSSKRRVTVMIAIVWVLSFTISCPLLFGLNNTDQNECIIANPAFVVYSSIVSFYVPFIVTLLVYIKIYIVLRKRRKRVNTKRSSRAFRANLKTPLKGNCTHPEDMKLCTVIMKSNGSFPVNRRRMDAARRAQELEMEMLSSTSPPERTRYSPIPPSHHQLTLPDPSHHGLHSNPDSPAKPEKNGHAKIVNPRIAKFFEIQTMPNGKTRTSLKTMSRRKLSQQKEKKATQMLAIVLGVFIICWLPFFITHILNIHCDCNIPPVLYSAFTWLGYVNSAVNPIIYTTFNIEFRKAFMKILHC
Chain of 5-HT7 receptor (P32305 whole entry): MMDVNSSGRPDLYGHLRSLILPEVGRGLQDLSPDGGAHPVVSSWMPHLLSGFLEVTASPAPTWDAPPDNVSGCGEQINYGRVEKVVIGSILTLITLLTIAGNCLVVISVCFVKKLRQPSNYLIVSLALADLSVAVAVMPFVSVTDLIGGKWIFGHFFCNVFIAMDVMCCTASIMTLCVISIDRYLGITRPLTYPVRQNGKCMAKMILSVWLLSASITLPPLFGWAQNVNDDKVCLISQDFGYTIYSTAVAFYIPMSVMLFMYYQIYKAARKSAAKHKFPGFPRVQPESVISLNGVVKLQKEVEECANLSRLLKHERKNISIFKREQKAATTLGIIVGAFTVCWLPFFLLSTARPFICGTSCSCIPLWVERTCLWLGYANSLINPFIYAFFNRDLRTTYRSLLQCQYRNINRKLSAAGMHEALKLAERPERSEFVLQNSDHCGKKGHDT
Chain of 5-HT2A (P14842 whole entry): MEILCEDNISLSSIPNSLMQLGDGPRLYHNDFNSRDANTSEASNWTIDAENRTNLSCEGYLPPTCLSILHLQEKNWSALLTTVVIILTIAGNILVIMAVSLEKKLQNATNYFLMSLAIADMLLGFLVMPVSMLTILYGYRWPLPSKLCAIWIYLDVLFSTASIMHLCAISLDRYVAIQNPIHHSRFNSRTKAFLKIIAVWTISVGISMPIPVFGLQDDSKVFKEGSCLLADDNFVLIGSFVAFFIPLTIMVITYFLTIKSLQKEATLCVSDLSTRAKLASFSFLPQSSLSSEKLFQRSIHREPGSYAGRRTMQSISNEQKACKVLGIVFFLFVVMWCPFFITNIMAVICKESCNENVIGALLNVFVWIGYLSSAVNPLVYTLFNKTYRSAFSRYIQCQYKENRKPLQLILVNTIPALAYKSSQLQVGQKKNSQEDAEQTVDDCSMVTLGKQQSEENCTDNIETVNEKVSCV
Chain of Histamine H1 receptor (P31389 whole entry): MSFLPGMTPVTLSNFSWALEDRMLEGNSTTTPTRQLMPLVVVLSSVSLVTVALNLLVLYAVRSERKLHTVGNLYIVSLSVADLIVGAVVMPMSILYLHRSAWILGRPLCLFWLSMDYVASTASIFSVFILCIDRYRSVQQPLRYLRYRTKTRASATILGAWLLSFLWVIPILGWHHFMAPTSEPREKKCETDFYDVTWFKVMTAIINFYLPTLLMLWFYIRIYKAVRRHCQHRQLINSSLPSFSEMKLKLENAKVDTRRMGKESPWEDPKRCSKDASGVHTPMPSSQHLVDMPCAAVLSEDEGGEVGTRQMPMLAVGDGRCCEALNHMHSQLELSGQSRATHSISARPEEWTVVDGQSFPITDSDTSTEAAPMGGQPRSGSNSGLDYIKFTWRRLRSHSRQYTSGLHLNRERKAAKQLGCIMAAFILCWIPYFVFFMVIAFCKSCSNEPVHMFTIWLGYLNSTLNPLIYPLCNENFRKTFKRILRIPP

Compound | Ki (5-HT1A) [nM] | Ki (D2; [1]) [nM] | Ki (5-HT2A; [2]) [nM] | Ki (5-HT7 receptor) [nM] | Ki (Histamine H1 receptor) [nM] | Ki (D2) [nM] | Ki (5-HT2A) [nM]
COc1ccc(N2CCN(CCCOc3ccc4c(c3)C(=O)N(C)CC4)CC2)cc1 [Compound 21, 7-(3-(4-(4-methoxyphenyl)piperazin-1-yl)propoxy)-2-methyl-3,4-dihydroisoquinolin-1(2H)-one] | > 2000 | > 2000 | > 2000 | – | – | – | –
Cc1cc(OCCCN2CCC(c3noc4cc(F)ccc34)CC2)cc2c1CCN(C)C2=O [Compound 8, 7-(3-(4-(6-fluorobenzo[d]isoxazol-3-yl)piperidin-1-yl)propoxy)-2,5-dimethyl-3,4-dihydroisoquinolin-1(2H)-one] | 2.8 | 8.7 | 2.4 | 6.7 | > 2000 | – | –
CN1CCc2ccc(OCCCN3CCN(c4ccccc4F)CC3)cc2C1=O [Compound 20, 7-(3-(4-(2-fluorophenyl)piperazin-1-yl)propoxy)-2-methyl-3,4-dihydroisoquinolin-1(2H)-one] | 24.5 | 54.8 | 32.1 | 29.9 | > 2000 | – | –
CN1CCc2ccc(OCCCCN3CCN(c4cccc(C(F)(F)F)c4)CC3)cc2C1=O [Compound 3, 2-methyl-7-(4-(4-(3-(trifluoromethyl)phenyl)piperazin-1-yl)butoxy)-3,4-dihydroisoquinolin-1 (2H)-one] | 11.8 | 17.2 | 9.9 | 23.6 | – | – | –
CN1CCc2ccc(OCCCN3CCN(c4ccccc4Cl)CC3)cc2C1=O [Compound 18, 7-(3-(4-(2-chlorophenyl)piperazin-1-yl)propoxy)-2-methyl-3,4-dihydroisoquinolin-1(2H)-one] | > 2000 | > 2000 | > 2000 | – | – | – | –
Cn1cnc2ccc(OCCCCN3CCN(c4ccc(F)cc4)CC3)cc2c1=O [Compound 29, 6-(4-(4-(4-fluorophenyl)piperazin-1-yl)butoxy)-3-methylquinazolin-4(3H)-one] | 259 | > 2000 | 347 | – | – | – | –
O=C1NCCc2ccc(OCCCN3CCN(c4ccc5sccc5c4)CC3)cc21 [C, reference compound] | – | – | – | 500 | 138 | 35.2 | –
Cn1cnc2ccc(OCCCCN3CCN(c4ccccn4)CC3)cc2c1=O [Compound 30, 3-methyl-6-(4-(4-(pyridin-2-yl)piperazin-1-yl)butoxy)quinazolin-4(3H)-one] | > 2000 | – | – | – | – | > 2000 | > 2000
Cn1c(=O)c2cc(OCCCN3CCN(c4cccc5sccc45)CC3)ccc2n(C)c1=O [D, reference compound] | – | 25.5 | – | 606 | 154 | – | –
O=C1CCc2ccc(OCCCCN3CCC(c4noc5cc(F)ccc45)CC3)cc2N1 [E, reference compound] | 23.2 | – | – | 35.6 | 178 | 5.6 | 12.7
CN1CCc2ccc(OCCCN3CCN(c4ccc(Cl)cc4)CC3)cc2C1=O [Compound 17, 7-(3-(4-(4-chlorophenyl)piperazin-1-yl)propoxy)-2-methyl-3,4-dihydroisoquinolin-1(2H)-one] | > 2000 | > 2000 | > 2000 | – | – | – | –
CN1CCc2ccc(OCCCN3CCN(c4cccc5sccc45)CC3)cc2C1=O [B, reference compound] | – | – | – | 579 | 139 | – | –
COc1ccccc1N1CCN(CCCCOc2ccc3c(c2)C(=O)N(C)CC3)CC1 [Compound 2, 7-(4-(4-(2-methoxyphenyl)piperazin-1-yl)butoxy)-2-methyl-3,4-dihydroisoquinolin-1(2H)-one] | 11.3 | 120 | 36.8 | – | – | – | –
CN1CCc2ccc(OCCCCN3CCC(c4noc5cc(F)ccc45)CC3)cc2C1=O [Compound 1, 7-(4-(4-(6-fluorobenzo[d]isoxazol-3-yl)piperidin-1-yl)butoxy)-2-methyl-3,4-dihydroisoquinolin-1(2H)-one] | 15.8 | 12.5 | 18.9 | 12.5 | – | – | –
CN1CCc2ccc(OCCCN3CCN(c4cccc5ccccc45)CC3)cc2C1=O [Compound 6, 2-methyl-7-(3-(4-(naphthalen-1-yl)piperazin-1-yl)propoxy)-3,4-dihydroisoquinolin-1(2H)-one] | 46.6 | 134 | 57 | – | – | – | –
CN1COc2ccc(OCCCN3CCC(c4noc5cc(F)ccc45)CC3)cc2C1=O [Compound 11, 6-(3-(4-(6-fluorobenzo[d]isoxazol-3-yl)piperidin-1-yl)propoxy)-3-methyl-2H-benzo[e][1,3]oxazin-4(3H)-one] | 24.6 | 13.9 | 3.6 | 11.2 | > 2000 | – | –
CN1CCc2c(F)cc(OCCCN3CCC(c4noc5cc(F)ccc45)CC3)cc2C1=O [Compound 9, 5-fluoro-7-(3-(4-(6-fluorobenzo[d]isoxazol-3-yl)piperidin-1-yl)propoxy)-2-methyl-3,4-dihydroisoquinolin-1(2H)-one] | 3.9 | 3.1 | 3.7 | 7.9 | > 2000 | – | –
CN1CCc2ccc(OCC(O)CN3CCC(c4noc5cc(F)ccc45)CC3)cc2C1=O (centres unmarked) [Compound 4, 7-(3-(4-(6-fluorobenzo[d]isoxazol-3-yl)piperidin-1-yl)-2-hydroxypropoxy)-2-methyl-3,4-dihydroisoquinolin-1(2H)-one] | 3.9 | 15.1 | 15.9 | 10.2 | > 2000 | – | –
Cn1cnc2ccc(OCCCCN3CCc4ccccc4C3)cc2c1=O [Compound 27, 6-(4-(3,4-dihydroisoquinolin-2(1H)-yl)butoxy)-3-methylquinazolin-4(3H)-one] | 57.9 | 500 | 66.2 | – | – | – | –
CN1CCc2ccc(OCCCN3CCN(c4ccc(F)cc4)CC3)cc2C1=O [Compound 19, 7-(3-(4-(4-fluorophenyl)piperazin-1-yl)propoxy)-2-methyl-3,4-dihydroisoquinolin-1(2H)-one] | 746 | 1650 | 688 | – | – | – | –
CN1CCc2ccc(OCCCN3CCN(c4ccccc4)CC3)cc2C1=O [Compound 16, 2-methyl-7-(3-(4-phenylpiperazin-1-yl)propoxy)-3,4-dihydroisoquinolin-1(2H)-one] | 569 | > 2000 | 372 | – | – | – | –
O=C1NCCc2ccc(OCCCN3CCC(c4noc5cc(F)ccc45)CC3)cc21 [Compound 12, 7-(3-(4-(6-fluorobenzo[d]isoxazol-3-yl)piperidin-1-yl)propoxy)-3,4-dihydroisoquinolin-1(2H)-one] | 19.3 | 10.4 | 5.5 | 8.9 | > 2000 | – | –
Cn1cnc2ccc(OCCCCN3CCN(c4cccc(C(F)(F)F)c4)CC3)cc2c1=O [Compound 28, 3-methyl-6-(4-(4-(3-(trifluoromethyl)phenyl)piperazin-1-yl)butoxy)quinazolin-4(3H)-one] | 12.2 | 24.8 | 5.8 | 7.4 | > 2000 | – | –
CN1CCc2ccc(OCCCN3CCC(C(=O)c4ccc(F)cc4)CC3)cc2C1=O [Compound 25, 7-(3-(4-(4-fluorobenzoyl)piperidin-1-yl)propoxy)-2-methyl-3,4-dihydroisoquinolin-1(2H)-one] | 17.6 | 32.8 | 21.7 | 10.8 | > 2000 | – | –
Cn1cnc2ccc(OCCCCN3CCN(Cc4ccccc4)CC3)cc2c1=O [Compound 26, 6-(4-(4-benzylpiperazin-1-yl)butoxy)-3-methylquinazolin-4(3H)-one] | 56.9 | > 2000 | > 2000 | – | – | – | –
Cc1nc2ccc(OCCCN3CCN(c4cccc(C(F)(F)F)c4)CC3)cc2c(=O)n1C [Compound 31, 2,3-dimethyl-6-(3-(4-(3-(trifluoromethyl)phenyl)piperazin-1-yl)propoxy)quinazolin-4(3H)-one] | 19 | 21.8 | 9.8 | 8.3 | > 2000 | – | –
CN1CCc2ccc(OCCCN3CCN(c4ccc5ccccc5n4)CC3)cc2C1=O [Compound 15, 7-(3-(4-(quinolin-2-yl)piperazin-1-yl)propoxy)-2-methyl-3,4-dihydroisoquinolin-1(2H)-one] | 157 | 1990 | 468 | – | – | – | –
O=C1NCCc2ccc(OCCCN3CCN(c4cccc(Cl)c4Cl)CC3)cc21 [A, reference compound] | 14.3 | 21.2 | 29.2 | 254 | 89.6 | – | –
CN1CCc2ccc(OCCCN3CCN(c4ccc5c(c4)OCO5)CC3)cc2C1=O [Compound 13, 7-(3-(4-(benzo[d][1,3]dioxol-5-yl)piperazin-1-yl)propoxy)-2-methyl-3,4-dihydroisoquinolin-1 (2H)-one] | 12.8 | 235 | 3.6 | – | – | – | –
CN1CCc2ccc(OCCCN3CCN(c4ccccn4)CC3)cc2C1=O [Compound 23, 2-methyl-7-(3-(4-(pyridin-2-yl)piperazin-1-yl)propoxy)-3,4-dihydroisoquinolin-1(2H)-one] | > 2000 | > 2000 | 369 | – | – | – | –
